Read-outs that look alike come from different tables or passages of the source.
Legend:
H. pylori = H. pylori growth with omeprazole, pentagastrin, amoxycillin and combinations, monitored spectrophotometrically; type: cell-based; conditions: single or triple-combined treatment; 18, 24, 46 hours; FIG. 3
Experimental: In an attempt to optimize the antibacterial formulation for eradication of H. pylori, the effect of pentagastrin and omeprazole provided in combination with amoxicillin was tested. Amoxicillin is a commonly accepted antibiotic used for H. pylori treatment. To investigate the effect of triple administration we tested the growth of bacteria in the presence of omeprazole, pentagastrin, amoxycillin, and their possible combinations was tested. Bacteria grown in the absence of any agent was used as a negative control. The level of bacterial growth was monitored spectrophotometrically after 18, 24, and 46 hours of treatment.

[1] = system: H. pylori (H-88 clinical isolate); assay: H. pylori growth in liquid medium, CFU counts, 48 hours; type: cell-based; conditions: 48 hours incubation, FIG. 1A
[2] = Blood glucose levels in pylorus-ligated rats challenged with oral PG; type: in vivo; conditions: compared to controls, FIG. 6
Experimental: The observed effects of stimulation of gastric acid secretion may occur by different mechanisms. PG may be digested by gastric enzymes and the resulting free amino acids may stimulate acid secretion directly. Alternatively, the intact peptide may be actually absorbed from the gastric lumen and exert its effect on CCK-B receptors on the ECL and parietal cells. […] Since blood glucose levels reflect the activity of peripheral insulin, glucose levels were measured in the pylorus-ligated rats following the administration of PG or saline. These measurements served as a surrogate marker for PG-induced insulin release via activation of CCK-B receptors on the ECL and parietal cells. […] This observation supports the notion that the PG was absorbed intact and thereby could directly exert its effect on gastric tissue and stimulate secretion of gastric acid. […] B. Co-Administration of PG and Omeprazole

acid secretion = conditions: oral PG, cited from earlier work
gastric mucosa = conditions: applied to the luminal surface, in vitro bullfrog model; cited from earlier work
gastric acid secretion [3] = assay: Gastric acid secretion after oral PG in fasted rats, no pylorus ligation; type: in vivo, Wistar Hanover rats; conditions: PG 50 μg P.O.
Experimental: (§1) Male and female Wistar Hanover rats, 7-10 weeks of age, were obtained from Harlan Laboratories (Rehovot, Israel). Animals were fed standard chow and received unlimited water supply. The animals were kept in automatically controlled temperature (between 20-24° C.), a 12-hour light/dark cycle, and 15 air changes an hour.
(§2) Rats were fasted (with water freely available) for 24 hours before experimentation. PG or saline were introduced into the stomach by means of a steel feeding needle. Thereafter, the animals were injected with Domitor and Ketaset; the abdominal wall was dissected and gastric fluid (approximately 30 μl) was collected by puncture with a needle (0.45×13 2006-09 Artsana S.P.A., Grandate (CO), Italy) at the indicated time points. Gastric juice was kept frozen at −80° C. until use. In some experiments, the rats were first anesthetized and dissected, after which test reagents were introduced by direct injection into the stomach. […]
(§3) Frozen gastric juice was defrosted at room temperature, mixed by vortexing, and centrifuged for 5 minutes at 14,000 RPM. […] The pH was measured, and NaOH (0.001 N) was added to the sample until pH 7 was reached, as determined by measuring pH using a pH meter (pH211, Hanna Instruments, 35030 Sameola di Rubano, Italy). […]

gastric acid secretion [4] = assay: Gastric acid secretion after oral PG in pylorus-ligated rats; type: in vivo, Wistar Hanover rats; conditions: PG 50 μg P.O., vs saline
Experimental: as §1, §2, §3

| Compound | inhibition of bacterial growth (spectrophotometric) (H. pylori) | bacterial growth, CFU counts [1] | blood glucose levels [2] | effect on acid secretion (acid secretion; four normal subjects) | effect on acid secretion (acid secretion; three patients with gastrointestinal abnormalities) | effect on gastric mucosa (gastric mucosa) | time of maximal effect on acid secretion after oral PG (gastric acid secretion [3]; p=0.05) | secretion of acid into the gastric lumen (gastric acid secretion [3]; vs saline and S.C. PG, FIG. 4) | gastric acid output (gastric acid secretion [4]; all time points, p<0.05, FIG. 5B) | gastric pH (gastric acid secretion [4]; p<0.05, FIG. 5A) |
| --- | --- | --- | --- | --- | --- | --- | --- | --- | --- | --- |
| CC1(C)S[C@@H]2[C@H](NC(=O)[C@H](N)c3ccc(O)cc3)C(=O)N2[C@H]1C(=O)O [amoxicillin] | moderate inhibition | – | – | – | – | – | – | – | – | – |
| caerulein | – | inhibited bacterial growth to an extent similar to that of omeprazole | – | – | – | – | – | – | – | – |
| βAla-Trp-Met-Asp-PheNH2 [PG] | moderate inhibition | inhibited bacterial growth to an extent similar to that of omeprazole | decreased | no effect | some effect | did not affect the gastric mucosa | 30 min | significant secretion of acid | significantly increased | decreased |

From patent US7271146B2, “Methods for treatment of Helicobacter pylori-associated disorders” (Vecta Ltd., priority 2002, dated 2007)
